# Test results as given in article PMC6964649, “Light-controllable dithienylethene-modified cyclic peptides: photoswitching the in vivo toxicity in zebrafish embryos” (Beilstein Journal of Organic Chemistry, 2020).
# Starred links: 1 amine or outer side, 2 acyl side, 3 side chain; linkers in the order of their positions; H or OH if unused. Positions of bridges follow the written chain, without caps; N, C: chain ends. Non-standard residues stand in square brackets, D forms with d. Residues, ends and D or L forms follow the SMILES beside them. *: point of attachment. X2 = Cc1sc(C(=O)[C@@H]2CCCN2[*:2])cc1C1=C(c2cc(C(=O)[*:1])sc2C)CCC1; Orn = NCCC[C@H](N)C(=O)O; NHiPr = CC(C)N*
# How the values were obtained:
# [1] = system: D. rerio embryos; assay: D. rerio embryotoxicity assay, direct application of ring-open photoform; assay type: in vivo, Danio rerio; conditions: direct application of 1 or ring-open photoform, zebrafish embryos at 3 dpf, final DMSO 0.2%, ambient light, value ± STD; for LD50 (open)^1h: 1 h incubation, 12–15 or 18–20 embryos; for LD50 (open)^3h: 3 h incubation; for LD50 (open)^24h: 24 h incubation
# Description: (§1) To establish the assay for screening the photoswitchable peptides, we first studied the toxicity of our prototype 2 by varying the assay conditions. The parent peptide GS 1 was used as a control. […] We measured the doses causing the death of 50% embryos (LD50). We tested two different assay variations: in one version, the LD50(open) was determined after direct application of 1 or of the ring-open form of 2. In the other variant, the photoswitchable peptide was applied in the ring-closed photoform in the darkness, its LD50(closed) was recorded, and then in situ illumination (“photoactivation”) was applied to switch into the ring-open photoform and obtain the respective LD50(opened) values (see Figure 2 for the study design and the killing curves).
# (§2) Figure 2 Two versions of the D. rerio embryotoxicity assay for DAE-modified peptides: timelines, peptide photostates, ages of larvae, and definitions of the measured characteristics. (A) Direct application of the non-photoswitchable parent GS 1 or of the ring-open photoform of our prototype 2, and the corresponding killing curves for 1 (C, top, black) and 2 (C, bottom, red). (B) “Photoactivation” assay: initial application of the ring-closed photoform, incubation in darkness, followed by in situ photoconversion into the ring-open(ed) photoform, with the corresponding killing curves for 1 (D, top) and 2 (D, bottom, green for ring-closed, red for ring-open isomers). The latter panel illustrates the “phototherapeutic safety window” (green arrow) as the difference in toxicity between the ring-closed and the ring-open isomers upon photoactivation.
# (§3) Each time, 12–15 or 18–20 zebrafish embryos at 3 dpf were treated by applying the corresponding peptide dissolved in dimethyl sulfoxide (final dimethyl sulfoxide concentration was 0.2%). Double-concentrated peptide stock solutions (64–512 µg/mL) were prepared by weighing lyophilized peptides, dissolving in 10% dimethyl sulfoxide and constructing two-fold dilution series with ten–eleven dilution steps. In the photoconversion experiments, in order to prevent spontaneous photoswitching of the ring-closed peptides by vis light, zebrafish embryos and peptides were kept in the dark before the first readout, and the vials were sealed to avoid evaporation of the embryonic medium (E3) at prolonged incubation times. After the first screen, without exchanging any solution, the vials with embryos and ring-closed photoforms were exposed to intense illumination for 10 min (LUMATEC Superlite 410 light source, λ = 570 nm, irradiance approximately 20 mW/cm^2). Mortality was then determined under ambient light conditions at 1 h and 24 h after the illumination procedure.
# [2] = system: D. rerio embryos; assay: D. rerio embryotoxicity "photoactivation" assay (ring-closed photoform in darkness, then in situ photoconversion); assay type: in vivo, Danio rerio; conditions: for LD50 (opened)^1h / LD50 (opened)^24h: after 24 h with ring-closed form in dark, in situ illumination 10 min, λ = 570 nm, approx. 20 mW/cm^2; for LD50 (opened)^1h: mortality 1 h after illumination, embryos 4 dpf; for LD50 (opened)^1h / LD50 (opened)^24h / LD50 (closed)^24h: value ± STD; for LD50 (opened)^24h: mortality 24 h after illumination, embryos 5 dpf at readout; for LD50(closed)^24h/LD50(open)^24h ratio: phototherapeutic safety window, ring-closed 24 h LD50 (dark) divided by ring-open 24 h LD50 (direct application); for LD50 (closed)^24h: ring-closed photoform applied to embryos at 3 dpf, 24 h in the dark, sealed vials, E3 medium, 0.2% DMSO
# Description: as §1, §2, §3
Structure (SMILES),LD50 (open)^1h [1],LD50 (open)^3h [1],LD50 (open)^24h [1],LD50 (opened)^1h [2],LD50 (opened)^24h [2],LD50(closed)^24h/LD50(open)^24h ratio [2],LD50 (closed)^24h [2]
"CC(C)C[C@@H]1NC(=O)[C@H](CCCN)NC(=O)[C@H](C(C)C)NC(=O)[C@@H]2CCCN2C(=O)[C@@H](Cc2ccccc2)NC(=O)[C@H](CC(C)C)NC(=O)[C@H](CCCN)NC(=O)[C@H](C(C)C)NC(=O)[C@@H]2CCCN2C(=O)[C@@H](Cc2ccccc2)NC1=O [Peptide 1, gramicidin S, reference compound] (cyclo(L[dF]PV[Orn]L[dF]PV[Orn]))",2.8 ± 2.7 µg/mL,2.0 ± 3.0 µg/mL,2.4 ± 0.2 µg/mL,–,–,–,–
Cc1sc2cc1C1=C(CCC1)c1cc(sc1C)C(=O)[C@@H]1CCCN1C(=O)[C@H](C)NC(=O)[C@H](CCCN)NC(=O)[C@H](C(C)C)NC(=O)[C@@H]1CCCN1C(=O)[C@@H](Cc1ccccc1)NC(=O)[C@H](CC(C)C)NC(=O)[C@H](CCCN)NC(=O)[C@H](C(C)C)NC2=O [Peptide 3],9.3 ± 7.8 µg/mL,4.8 ± 3.9 µg/mL,4.7 ± 0.1 µg/mL,9.5 ± 1.3 µg/mL,6.2 ± 0.6 µg/mL,6.6,31.1 ± 4.2 µg/mL
Cc1sc2cc1C1=C(CCC1)c1cc(sc1C)C(=O)[C@@H]1CCCN1C(=O)[C@H](C)NC(=O)[C@H](CCCN)NC(=O)[C@H](C(C)C)NC(=O)[C@@H]1CCCN1C(=O)[C@@H](Cc1ccccc1)NC(=O)[C@H](CC(C)C)NC(=O)[C@H](CCCN)NC(=O)[C@H](C)NC2=O [Peptide 4] (A[Orn]L[dF]PV[Orn]A; linker N-C via X2),69.8 ± 10.5 µg/mL,40.6 ± 11.2 µg/mL,19.0 ± 1.3 µg/mL,51.0 ± 7.7 µg/mL,12.9 ± 1.9 µg/mL,10.4,–
Cc1sc2cc1C1=C(CCC1)c1cc(sc1C)C(=O)[C@@H]1CCCN1C(=O)[C@H](CC(C)C)NC(=O)[C@H](CCCN)NC(=O)[C@H](C(C)C)NC(=O)[C@@H]1CCCN1C(=O)[C@@H](Cc1ccccc1)NC(=O)[C@H](CC(C)C)NC(=O)[C@H](CCCN)NC(=O)[C@H](CCCN)NC2=O [Peptide 5],4.8 ± 2.2 µg/mL,2.8 ± 1.9 µg/mL,3.3 ± 0.7 µg/mL,8.1 ± 1.0 µg/mL,5.3 ± 0.5 µg/mL,2.5,8.1 ± 1.0 µg/mL
Cc1sc2cc1C1=C(CCC1)c1cc(sc1C)C(=O)[C@@H]1CCCN1C(=O)[C@H](C(C)C)NC(=O)[C@H](CCCN)NC(=O)[C@H](C(C)C)NC(=O)[C@@H]1CCCN1C(=O)[C@@H](Cc1ccccc1)NC(=O)[C@H](C(C)C)NC(=O)[C@H](CCCN)NC(=O)[C@H]([C@@H](C)O)NC2=O [Peptide 6] (T[Orn]V[dF]PV[Orn]V; linker N-C via X2),30.8 ± 15.0 µg/mL,13.2 ± 13.3 µg/mL,8.6 ± 0.0 µg/mL,20.6 ± 1.7 µg/mL,6.3 ± 2.3 µg/mL,22.9,–
Cc1sc2cc1C1=C(CCC1)c1cc(sc1C)C(=O)[C@@H]1CCCN1C(=O)[C@H](C(C)C)NC(=O)[C@H](CCCN)NC(=O)[C@H](C(C)C)NC(=O)[C@@H]1CCCN1C(=O)[C@@H](Cc1ccccc1)NC(=O)[C@H](C(C)C)NC(=O)[C@H](CCCN)NC(=O)[C@H](CC(=O)NC(C)C)NC2=O [Peptide 7] (D(NHiPr)[Orn]V[dF]PV[Orn]V; linker N-C via X2),15.9 ± 4.3 µg/mL,8.7 ± 9.1 µg/mL,5.8 ± 0.4 µg/mL,18.2 ± 4.6 µg/mL,3.0 ± 2.5 µg/mL,45.9,–
